Data from article PMC6753678, “Fueling Open Innovation for Malaria Transmission-Blocking Drugs: Hundreds of Molecules Targeting Early Parasite Mosquito Stages” (Frontiers in Microbiology, 2019).
Where two headings read alike, the source gives them in different places.

How the values were obtained:
[1] = system: P. falciparum female gametocytes; design: method as in Miguel-Blanco et al 2017; details: ref Miguel-Blanco et al 2017, read-out: Pf FGAA IC50, cited from earlier work
HepG2 cells [2] = details: HepG2 value reported with Pf FGAA screen; ref Miguel-Blanco et al 2017; cited from earlier work
[3] = system: P. falciparum female gametocytes; test: P. falciparum female gametogenesis assay (Pf FGAA); details: 1: YES, 0: NO
HepG2 cells [4] = test: HepG2 cytotoxicity assay; details: unified HepG2 cytotoxicity across the three screens
In short: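 Percent inhibition derived from fluorescent viability readout, normalised to DMSO (negative) and 50 μM doxorubicin (positive). Compound incubation lasted 48 h at 37°C, 5% CO2, with 2,500 HepG2 cells/well in MEM plus 10% FBS and 1% NEAA.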

[5] = >10-fold selectivity over cytotox

| Compound | IC50 ([1]; TCAMS library screen) [nM] | HepG2 cytoxicity (Pf FGAA screen) (HepG2 cells [2]) [µM] | Is compound selective in assay? Pf FGAA active? [3] | Unified cytotox (HepG2 cells [4]) [µM] | IC50 [1] [nM] | Is compound selective in assay? Pf FGAA active? [3, 5] |
| --- | --- | --- | --- | --- | --- | --- |
| CN(/N=C/C=C/c1ccc(Cl)cc1)c1nc(NCCc2ccc(O)cc2)nc(N2CCNCC2)n1 [TCMDC-138546] | 1960 | 13.18 | 0 (0: NO) | – | – | – |
| CCn1c(-c2nonc2N)nc2c(-c3cccc(NC(=O)NC45CC6CC(CC(C6)C4)C5)c3)ncc(OCCCN)c21.O=C(O)C(F)(F)F [TCMDC-136246] | 1360 | 6.10 | 0 (0: NO) | – | – | – |
| CC(C)(C)c1cc(NC2CC2)nc(-c2ccccn2)n1 [TCMDC-125826] | 120 | >100 | 1 (1: YES) | – | – | – |
| c1ccc(C23N=C(Nc4nc5ccccc5[nH]4)NC2(c2ccccc2)NC(Nc2nc4ccccc4[nH]2)=N3)cc1 (stereo not drawn) [TCMDC-139082] | – | – | – | 58.90 | 140 | 1 (1: YES) |
| Cc1ccc(Cn2nc(Cl)c(N3CCNCC3)cc2=O)cc1NC(=O)Nc1ccc(-c2ccccc2)cc1.O=C(O)C(F)(F)F [TCMDC-141698] | – | – | – | 4.79 | 440 | 1 (1: YES) |
| O=C(NCC1CCN(CCN2CCC(c3cn(CCO)c4ccccc34)CC2)CC1)c1ccc(-c2ccc(C(F)(F)F)cc2)cc1 [TCMDC-138856] | – | – | – | 2.69 | 1470 | 0 (0: NO) |
| CC(C)(C)c1ccc(CNCCOc2ccc(Nc3nnc(-c4ccc(-c5ncc[nH]5)cc4)o3)c3ccccc23)cc1.O=C(O)C(F)(F)F [TCMDC-138667] | – | – | – | 5.96 | 620 | 0 (0: NO) |
| O=C(Nc1ccc(-c2ccccc2)c(OCCN2CCNCC2)c1)c1ccc(-c2ccc(Cl)cc2)cc1 [TCMDC-138818] | – | – | – | 4.95 | 1380 | 0 (0: NO) |
| COc1cccc(CCNC(C)Cc2ccc(OCCCCOc3ccccc3)cc2)c1 (stereo not drawn) [TCMDC-140020] | – | – | – | 1.46 | 1510 | 0 (0: NO) |
| COC(=O)c1ccc(-c2ccc(C(=O)NCC3CCN(c4nc(N)c5cc(OC)c(OC)cc5n4)CC3)cc2)cc1 [TCMDC-138721] | – | – | – | 6.10 | 910 | 0 (0: NO) |
| Clc1ccc(Nc2nc(NCc3ccccc3)nc(N/N=C/c3ccccn3)n2)cc1 [TCMDC-138557] | – | – | – | 13.96 | 260 | 1 (1: YES) |
| CC(NCCc1cccc(Cl)c1)C(O)c1ccc(OCCCCCCOc2ccc(C(O)C(C)NCCc3cccc(Cl)c3)cc2)cc1 (stereo not drawn) [TCMDC-139334] | – | – | – | 2.63 | 1000 | 0 (0: NO) |
| Nc1ccc2[nH]cc(C3CCN(CCC4CCN(C(=O)/C=C/c5ccc(Cl)c(Cl)c5)CC4)CC3)c2n1 [TCMDC-140062] | – | – | – | 8.13 | 1290 | 0 (0: NO) |
| CC(=O)Nc1ccc2[nH]cc(C3CCN(CC4CCN(C(=O)/C=C/c5ccc(Cl)c(Cl)c5)CC4)CC3)c2n1 [TCMDC-140112] | – | – | – | 12.59 | 1380 | 0 (0: NO) |
| CN1CCN(c2ccc(Nc3ncc([N+](=O)[O-])c(Nc4ccccc4O)n3)cc2)CC1.O=C(O)C(F)(F)F [TCMDC-141372] | – | – | – | 1.82 | 2010 | 0 (0: NO) |
| CC(Cc1ccc(NC(=O)c2ccc(CC(C)NCc3ccc(Cl)cc3)cc2)cc1)NCCc1cccc(Cl)c1 (stereo not drawn) [TCMDC-139810] | – | – | – | 4.03 | 860 | 0 (0: NO) |
| Cc1cc(N)c2cc(NC(=O)/C=C/c3ccc([N+](=O)[O-])cc3)ccc2n1 [TCMDC-139335] | – | – | – | 5.37 | 2690 | 0 (0: NO) |
| CN1CCN(CCCNCc2ccccc2-c2cccc(CNCc3ccc4c(c3)OCO4)c2)CC1.O=C(O)C(F)(F)F [TCMDC-140476] | – | – | – | 1.51 | 1640 | 0 (0: NO) |

| Compound | IC50 ([1]; TCAMS library screen) [nM] | HepG2 cytoxicity (Pf FGAA screen) (HepG2 cells [2]) [µM] | Is compound selective in assay? Pf FGAA active? [3] | Unified cytotox (HepG2 cells [4]) [µM] | IC50 [1] [nM] | Is compound selective in assay? Pf FGAA active? [3, 5] |
| --- | --- | --- | --- | --- | --- | --- |
| CC(Cc1ccc(NS(=O)(=O)c2ccc(CC(C)NCCc3cccc(Cl)c3)cc2)cc1)NCCc1cccc(Cl)c1 (stereo not drawn) [TCMDC-139797] | – | – | – | 4.37 | 1840 | 0 (0: NO) |
| CCN(CC)CCN(Cc1ccc(-c2ccc(C(F)(F)F)cc2)cc1)C(=O)Cn1cc(Cc2cnn(C)c2)c(=O)nc1/C=C/c1ccc(F)cc1.O=C(O)C(O)C(O)C(=O)O [TCMDC-140741] | – | – | – | 13.81 | 1210 | 1 (1: YES) |
| Cl.OC(CNCCCCCCNCC(O)c1ccc(Cl)c(Cl)c1)c1ccc(Cl)c(Cl)c1 (stereo not drawn) [TCMDC-141987] | – | – | – | 4.27 | 900 | 0 (0: NO) |
| Cl.O=S(=O)(Nc1cc2c(cc1OCCCN1CCCCC1)CCNCC2)c1ccc(-c2ccc(Cl)cc2)cc1 [TCMDC-141753] | – | – | – | 4.37 | 2000 | 0 (0: NO) |
| CCN1CCC2(c3cccc(OC)c3)Cc3nc4ccccc4c(-c4ccccc4)c3CC2C1 (stereo not drawn) [TCMDC-138968] | – | – | – | 33.25 | 1430 | 1 (1: YES) |
| CCOc1ccc2c(=NN=Cc3cc(OC)c(OC)cc3OC)cc(C)[nH]c2c1 [TCMDC-142207] | – | – | – | 12.17 | 1220 | 0 (0: NO) |
| CC(C)Cn1cc(C2CCN(CCN3CCC(CNC(=O)c4ccc(-c5ccc(C#N)cc5)cc4)CC3)CC2)c2ccccc21 [TCMDC-138849] | – | – | – | 4.79 | 1030 | 0 (0: NO) |
| O=C(CCC1CCCC1)N(Cc1ccc(-c2ccc(CNCCc3ccccc3)cc2)cc1)C1CCCNC1.O=C(O)C(F)(F)F (stereo not drawn) [TCMDC-141444] | – | – | – | 5.19 | 1980 | 0 (0: NO) |
| CCN(CC)CCN(Cc1ccc(-c2ccc(Cl)cc2)cc1)C(=O)Cn1cc(CN(C)C)c(=O)nc1SCc1ccc(F)cc1 [TCMDC-140406] | – | – | – | 6.61 | 1380 | 0 (0: NO) |
| COc1cc2nc(-c3ccc(Br)cc3)cc(N)c2cc1OC [TCMDC-138933] | – | – | – | 4.95 | 760 | 0 (0: NO) |
| COc1cccc(C23N=C(Nc4nc5ccccc5[nH]4)NC2(c2cccc(OC)c2)NC(Nc2nc4ccccc4[nH]2)=N3)c1 (stereo not drawn) [TCMDC-139087] | – | – | – | 40.74 | 90 | 1 (1: YES) |
| Nc1nc(N)c2cc(NC(=O)c3ccc(Cl)c(Cl)c3)ccc2n1 [TCMDC-141982] | – | – | – | 2.14 | 1590 | 0 (0: NO) |
| Cc1ccc(Cn2ncc(N3CCCNCC3)c(Cl)c2=O)cc1NC(=O)Nc1ccc(-c2ccccc2)cc1 [TCMDC-141924] | – | – | – | 7.86 | 1730 | 0 (0: NO) |
| CC(C)(C)c1ccc(CNC(=O)c2cc(CNC3CCNCC3)ccc2O)cc1 [TCMDC-140775] | – | – | – | 13.96 | 2000 | 0 (0: NO) |
| Cl.N=C1C=C(N)C(=O)c2ccccc21 [TCMDC-141992] | – | – | – | 0.52 | 11900 | 0 (0: NO) |
| CN1CCc2cc(NS(=O)(=O)c3ccc(-c4ccc(Cl)cc4)cc3)c(OCCCN3CCCCC3)cc2CC1.Cl [TCMDC-141754] | – | – | – | 2.23 | 970 | 0 (0: NO) |
| CCn1c2ccccc2c2cc(C=NN=c3cc(C)[nH]c4ccccc34)ccc21 [TCMDC-142186] | – | – | – | 5.82 | 4150 | 0 (0: NO) |
| c1ccc(-c2nc(Nc3nc4ccccc4[nH]3)[nH]c2-c2ccccc2)cc1 [TCMDC-139099] | – | – | – | 10.98 | 580 | 1 (1: YES) |
